Common to all, as to assay type: in vivo
Experiment [1] deals with bitter taste of L-phenylalanine. The experiment can be described thus: Bitter-blocking effect on L-phenylalanine (detection threshold, 1/1 mixtures). The following applies: for own taste: Pyridinium-Betaine alone; for Taste quality: conc. 32 mmol/L, mixtures 1/1 with L-Phe. As to the method: • Sensory panel training: […] Sensory analyses were performed in a sensory panel room at 22-25° C. on three different sessions. • Taste thresholds: The taste thresholds of the tastants or mixtures containing basic tastants plus Pyridinium-Betains were determined in a triangle test using Evian® mineral water as the solvent at a defined pH ([…] and H.-D. Belitz, Z. Lebensm. Unters. Forsch. 1975, 159, 65-72). The samples (3 mL) were presented in order of increasing concentrations (serial 1:1 dilutions). The threshold values evaluated in two different sessions were averaged. […] The taste intensities of aqueous (Evian®) solutions containing a basic tastant, such as glucose and MSG, for example, in constant concentrations and the compounds of the general formula (A), for example […], in various concentrations were compared with those of a solution containing the basic tastant only. To achieve this, triangle tests were performed with two glass vials containing the basic tastant in constant concentrations, and one glass vial containing a stepwise 1:1-diluted mixture of basic […]. […] The relative taste strength (taste enhancing factor) of a mixture containing the basic […] was related to the basic tastants glucose, MSG, or other tastants, respectively, as standard substances, and was determined as the ratio of the concentrations c of iso-intensely tasting solutions of the basic tastant, such as glucose (glc), and the mixture containing tastant plus Pyridinium-Betain, […])=[…] […] This taste enhancing effect is illustrated in examples. The tasteless Pyridinium-Betaines […] and Gabapyridaine, built from non-[…] amino acids, were tested for their bitter-blocking activity on L-phenylalanine.

For experiment [2], the system named is salty taste of NaCl. The experiment can be described thus: Salt-intensity ranking of NaCl/Pyridinium-Betaine mixtures by sensory panel. Particulars: 20 mmol/L each, pH 7.0; for Salt-intensity: scale 0 (not salty) to 5 (very salty), reference NaCl-solution ranked as 1. An excerpt:
The salt-intensities of various NaCl/Pyridinium-Betaine mixtures (20 mmol/L each) were compared to a 20 mmol/L NaCl standard solution. The sensory panel was asked to rank the salt-intensities of these solutions on a scale from 0 (not salty) to 5 (very salty), while the reference NaCl-solution was ranked as 1. As listed in Table 6, the most intense salty taste was found in the solution containing NaCl and Alapyridaine, as well as in the triple mixture with L-arginine. A slight impact was found for Argpyridaine and L-arginine.

Experiment [3] deals with bitter taste of salicine. The experiment can be described thus: Bitter intensity ranking with Glypyridaine: salicine. Particulars: no Glypyridaine, scale 0-5. An excerpt: (§1) Instead of working with low concentrated solutions at the bitter threshold, another series of experiments use carried out using more concentrated solutions of various bitter compounds to evaluate the bitter-blocking properties of Pyridinium-Betaines based on non-chiral amino acids. […] The bitter-reducing effect was most pronounced with L-Phenylalanine, the dipeptide H-Gly-Leu-OH, and caffeine.

Experiment [4] concerns bitter taste of naringine. Put plainly: Bitter intensity ranking with Glypyridaine: naringine. Particulars: no Glypyridaine, scale 0-5.
Source text: as §1

Experiment [5] has as its system bitter taste of caffeine. Put plainly: Bitter intensity ranking with Glypyridaine: caffeine. Particulars: no Glypyridaine, scale 0-5.
Source text: as §1

The test system of experiment [6] is salty taste of NaCl. Put plainly: Salt taste detection threshold of NaCl/Pyridinium-Betaine mixtures (triangle test, sensory panel). The method, then:
• Sensory panel training: […] Sensory analyses were performed in a sensory panel room at 22-25° C. on three different sessions. • Taste thresholds: The taste thresholds of the tastants or mixtures containing basic tastants plus Pyridinium-Betains were determined in a triangle test using Evian® mineral water as the solvent at a defined pH ([…] and H.-D. Belitz, Z. Lebensm. Unters. Forsch. 1975, 159, 65-72). The samples (3 mL) were presented in order of increasing concentrations (serial 1:1 dilutions). The threshold values evaluated in two different sessions were averaged. […] The taste intensities of aqueous (Evian®) solutions containing a basic tastant, such as glucose and MSG, for example, in constant concentrations and the compounds of the general formula (A), for example […], in various concentrations were compared with those of a solution containing the basic tastant only. […] The relative taste strength (taste enhancing factor) of a mixture containing the basic […] was related to the basic tastants glucose, MSG, or other tastants, respectively, as standard substances, and was determined as the ratio of the concentrations c of iso-intensely tasting solutions of the basic tastant, such as glucose (glc), and the mixture containing tastant plus Pyridinium-Betain, […])=[…] […] This taste enhancing effect is illustrated in examples.

Experiment [7] concerns bitter taste of L-phenylalanine. The experiment can be described thus: Bitter intensity ranking with Glypyridaine: L-Phenylalanine. Particulars: no Glypyridaine.
Source text: as §1

Experiment [8] has as its system bitter taste of H-Gly-Leu-OH. The experiment can be described thus: Bitter intensity ranking with Glypyridaine: H-Gly-Leu-OH. The following applies: no Glypyridaine, scale 0-5. An excerpt: Instead of working with low concentrated solutions at the bitter threshold, another series of experiments use carried out using more concentrated solutions of various bitter compounds to evaluate the bitter-blocking properties of Pyridinium-Betaines based on non-chiral amino acids. […] The bitter-reducing effect was most pronounced with L-Phenylalanine, the dipeptide H-Gly-Leu-OH, and caffeine. For example the 10:1 mixture of L-Phenylalanine and […] was weaker in bitterness (score 3) as compared to pure L-Phenylalanine (score 5).

Turning to `O=C([O-])CCC[n+]1cc(O)ccc1CO` [Gabapyridaine], in experiment [1], the own taste result is “tasteless”. For the same molecule, the Taste quality result in experiment [1] (pH 7.0) is “complete loss of the bitter taste”.

As for `N=C(N)NCCC[C@H](N)C(=O)O` [L-Arginine (L-Arg), L-Arginine], the Salt-intensity in experiment [2] came out at 0.0.

In the case of `O=C([O-])CC[n+]1cc(O)ccc1CO` [β-Alapyridaine], in experiment [1], the own taste result is given as “tasteless”. For the same molecule, in experiment [1] (pH 7.0), the Taste quality entry was “complete loss of the bitter taste”.

Take `OCc1ccccc1O[C@@H]1O[C@H](CO)[C@@H](O)[C@H](O)[C@H]1O` [Salicine, reference compound]: the values for the Bitter taste intensity in experiment [3] (Salicine 0.8 mmol/L water), in experiment [3] (Salicine 1.6 mmol/L water) and in experiment [3] (Salicine 3.2 mmol/L water) were 3, 4.5 and 5, respectively.

As for `C[C@@H]1O[C@@H](O[C@H]2[C@H](Oc3cc(O)c4c(c3)O[C@H](c3ccc(O)cc3)CC4=O)O[C@H](CO)[C@@H](O)[C@@H]2O)[C@H](O)[C@H](O)[C@H]1O` [Naringine, reference compound], the Bitter taste intensity in experiment [4] (Naringine 0.06 mmol/L water) is recorded as 2.5; in experiment [4] (Naringine 0.13 mmol/L water), 4; in experiment [4] (Naringine 0.25 mmol/L water), 5.

As to `Cn1c(=O)c2c(ncn2C)n(C)c1=O` [Caffeine, reference compound], the Bitter taste intensity in experiment [5] (Caffeine 4 mmol/L water) stood at 3; in experiment [5] (Caffeine 8 mmol/L water), 4.5; in experiment [5] (Caffeine 16 mmol/L water), 5.

Consider `[Cl-].[Na+]` [NaCl, sodium chloride, reference compound], for which, in experiment [6] (NaCl alone), the “threshold of salt (NaCl) in water” value is “^aThe threshold of salt (NaCl) in water is 10.0 mmol/L”. In addition, the Taste quality result in experiment [6] (salt and mixtures with Alapyridaine enantiomers (Table 11), pH not stated) is recorded as “salty”. Moreover, the Detection threshold in experiment [6] (salty, salt and mixtures with Alapyridaine enantiomers (Table 11), pH not stated) turned out to be 10.0 mmol/kg water. In experiment [2], the Taste quality result is reported as “salty” and the Salt-intensity amounted to 1.0.

As for `N[C@@H](Cc1ccccc1)C(=O)O` [L-Phenylalanine, reference compound], in experiment [1] (pH 7.0), the Taste quality result was “bitter”. Also, the Detection threshold in experiment [1] (pH 7.0) is given as 16.0 mmol/L water. In addition, the Bitter taste intensity in experiment [7] (L-Phenylalanine 20 mmol/L water, scale 0 no bitterness to 5 strongly bitter) is 2; in experiment [7] (L-Phenylalanine 40 mmol/L water, scale 0-5) it was 4; in experiment [7] (L-Phenylalanine 80 mmol/L water, scale 0-5) it was 5.

Regarding H-Gly-Leu-OH [reference compound], the results for the Bitter taste intensity in experiment [8] (H-Gly-Leu-OH 30 mmol/L water), in experiment [8] (H-Gly-Leu-OH 60 mmol/L water) and in experiment [8] (H-Gly-Leu-OH 120 mmol/L water) were 2.5, 3.5 and 5, respectively.

Values taken from patent publication US7175872B2, “Pyridinium-Betain compounds for use as taste modulators” (Nestec S.A., priority 2002, dated 2007).
